Experimental data from article PMC11968987 (Nature Communications, 2025).

Molecular target: SAT1 (flag-tagged recombinant SAT1) (Homo sapiens, UniProt P21673)
Assay: DTNB-coupled SAT1 activity assay, Lineweaver-Burk plot
Assay type: biochemical
Conditions: co-substrate histone H3 (200 ng); pH 8.0, 35 °C; no ginkgolide B

SAT1 (flag-tagged recombinant SAT1), sequence (P21673 whole entry): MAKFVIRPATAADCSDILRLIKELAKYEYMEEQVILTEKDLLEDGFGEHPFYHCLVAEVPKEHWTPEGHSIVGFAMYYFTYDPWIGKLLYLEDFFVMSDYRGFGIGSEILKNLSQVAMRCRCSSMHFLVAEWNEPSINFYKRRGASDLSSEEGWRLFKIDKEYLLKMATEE

**Q.** Which km does the source give for `CC(=O)SCCNC(=O)CCNC(=O)[C@H](O)C(C)(C)COP(=O)(O)OP(=O)(O)OC[C@H]1O[C@@H](n2cnc3c(N)ncnc32)[C@H](O)[C@@H]1OP(=O)(O)O` [acetyl-CoA] here?
**A.** Both the Vmax and km values decreased with the addition of GB
